Results on 12 compounds are retold here after US8158647B2, “Substituted pyrrolopyridines and pyrazolopyridines as kinase modulators” (SGX Pharmaceuticals, Inc., priority 2007, dated 2012).

Assay [1] has as its target T1, purified and unphosphorylated T315I Abl kinase domain (ABL_T315I_0P) (Mus musculus, UniProt P00520, T315I).
T1 construct: The c-Abl T3151 KD (kinase domain) was purified as follows; Met-Ser-Leu (vector-derived residues) (N); made in house; host or cells: E. coli BL21(DE3) strains (Codon+RIL, or pSA0145 for the lambda phosphatase co-expression plasmid)
T1 sequence (P00520 242-493 T315I limits assumed): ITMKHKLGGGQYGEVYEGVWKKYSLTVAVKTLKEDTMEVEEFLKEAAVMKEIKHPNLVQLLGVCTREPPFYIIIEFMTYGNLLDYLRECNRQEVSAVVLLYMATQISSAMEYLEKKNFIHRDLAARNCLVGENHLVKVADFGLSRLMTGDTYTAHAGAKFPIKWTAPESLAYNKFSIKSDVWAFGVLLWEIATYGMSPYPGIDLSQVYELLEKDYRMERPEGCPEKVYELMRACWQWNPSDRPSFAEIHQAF
The assay can be described thus: c-Abl T315I (unphosphorylated kinase domain) pyruvate kinase/lactate dehydrogenase coupled enzyme assay. The format is biochemical. Particulars: 10 μM ATP.

The target in another assay is T2, ABL T315I BAF3 cells (Homo sapiens, UniProt P00519, T315I, cells depend on it).
T2 construct: ABL T315I BAF3; fused on or other part: P11274 (Breakpoint cluster region protein)
The assay can be described thus: 96-well XTT cell survival assay, BaF3 ABL T315I. The format is cell-based. Particulars: 72 hours, read-out: CELL BIO ABL T315I BAF3 XTT (IC50). In short, it runs like this: (§1)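 Ba/F3 cells in RPMI 1640 with 10% FBS (IL-3 medium for maintenance) were seeded at 5000-8000 cells/well and exposed to compound dilutions in duplicate for 72 h at 37° C. Viability read by XTT/PMS, absorbance 405 nm minus 650 nm after 2-6 h.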
For orientation: Tetrazolium dyes change colour on reduction, which living cells bring about.

In a further assay the target is T3, ABL P210WT BAF3 cells (Homo sapiens, UniProt P00519).
T3 construct: ABL P210WT BAF3; fused on or other part: P11274 (Breakpoint cluster region protein)
The assay is described as follows: 96-well XTT cell survival assay, BaF3 ABL P210WT. The format is cell-based. As to conditions: ABL P210 WT, 72 hours, read-out: CELL BIO ABL P210WT BAF3 XTT (IC50). In outline: as §1

Bounds are passed on as bounds.

As for `CCN(C)C(=O)c1cc(-c2cnc3[nH]cc(-c4cccc(F)c4)c3c2Cl)cnc1N` [2-Amino-5-[4-chloro-3-(3-fluoro-phenyl)-1H-pyrrolo[2,3-b]pyridin-5-yl]-N-ethyl-N-methyl-nicotinamide], in assay [1], the “ABL_T315I_0P (IC50)” value is given as “D (<0.01 μM)”. Also, the GI50 on ABL T315I BAF3 cells and at ABL P210WT BAF3 cells was 0.01 to 0.1 µM each time.
With `COc1ccccc1-c1c[nH]c2ncc(-c3cncc(C(O)C(=O)N(C)C)c3)c(OC)c12` (stereo not drawn) [2-Hydroxy-2-{5-[4-methoxy-3-(2-methoxy-phenyl)-1H-pyrrolo[2,3-b]pyridin-5-yl]-pyridin-3-yl}-N,N-dimethyl-acetamide], in assay [1], the “ABL_T315I_0P (IC50)” value is listed as “D (<0.01 μM)”. Further, the GI50 on ABL T315I BAF3 cells and on ABL P210WT BAF3 cells was 0.01 to 0.1 µM in each case.
Regarding `CN(C)C(=O)c1cncc(-c2cnc3[nH]cc(-c4ccccc4F)c3c2Cl)c1`, the “ABL_T315I_0P (IC50)” value in assay [1] is “D (<0.01 μM)”. The GI50 on ABL T315I BAF3 cells and at ABL P210WT BAF3 cells was 0.1 to 1 µM in each case.
For the compound `COc1ccccc1-c1c[nH]c2ncc(-c3cncc(C(=O)C(=O)N(C)C)c3)c(OC)c12` [2-{5-[4-Methoxy-3-(2-methoxy-phenyl)-1H-pyrrolo[2,3-b]pyridin-5-yl]-pyridin-3-yl}-N,N-dimethyl-2-oxo-acetamide], the “ABL_T315I_0P (IC50)” value in assay [1] is “D (<0.01 μM)”. The GI50 on ABL T315I BAF3 cells was in the range of 0.01 to 0.1 µM; on ABL P210WT BAF3 cells, 0.1 to 1 µM.
The like results for `Nc1ncc(-c2cnc3[nH]cc(-c4cccc(F)c4)c3c2Cl)cc1C(=O)N1CCCC1CO` (stereo not drawn) [{2-Amino-5-[4-chloro-3-(3-fluoro-phenyl)-1H-pyrrolo[2,3-b]pyridin-5-yl]-pyridin-3-yl}-(2-hydroxymethyl-pyrrolidin-1-yl)-methanone] were, in that order, “D (<0.01 μM)”, 0.1 to 1 µM and 0.1 to 1 µM.
The like results for `Cc1noc(C)c1-c1c[nH]c2ncc(-c3cncc(C(=O)N(C)C)c3)c(Cl)c12` [5-[4-Chloro-3-(3,5-dimethyl-isoxazol-4-yl)-1H-pyrrolo[2,3-b]pyridin-5-yl]-N,N-dimethyl-nicotinamide] were, in that order, “B (1.0-0.1 μM)”, more than 1 µM and more than 1 µM.
The like results for `CN(C)C(=O)c1cc(-c2cnc3[nH]cc(-c4cc(F)ccc4F)c3c2Cl)cnc1N` [2-Amino-5-[4-chloro-3-(2,5-difluoro-phenyl)-1H-pyrrolo[2,3-b]pyridin-5-yl]-N,N-dimethyl-nicotinamide] were, in that order, “D (<0.01 μM)”, 0.1 to 1 µM and 0.01 to 0.1 µM.
Consider `OC(c1cncc(-c2cnc3[nH]cc(-c4cccc(F)c4F)c3c2Cl)c1)C1CC1` (stereo not drawn) [{5-[4-Chloro-3-(2,3-difluoro-phenyl)-1H-pyrrolo[2,3-b]pyridin-5-yl]-pyridin-3-yl}-cyclopropyl-methanol], for which the “ABL_T315I_0P (IC50)” value in assay [1] is on record as “D (<0.01 μM)”. Also, the GI50 at ABL T315I BAF3 cells and at ABL P210WT BAF3 cells was 0.1 to 1 µM in each case.
`OC(c1cncc(-c2cnc3[nH]cc(-c4ccccc4F)c3c2Cl)c1)c1ncccc1F` (stereo not drawn): in assay [1], the “ABL_T315I_0P (IC50)” value is listed as “D (<0.01 μM)”. Moreover, the GI50 at ABL T315I BAF3 cells and on ABL P210WT BAF3 cells was 0.1 to 1 µM in each case.
On to `CN(C)C(=O)Cc1cncc(-c2cnc3[nH]cc(-c4cccc(F)c4F)c3c2Cl)c1` [2-{5-[4-Chloro-3-(2,3-difluoro-phenyl)-1H-pyrrolo[2,3-b]pyridin-5-yl]-pyridin-3-yl}-N,N-dimethyl-acetamide], for which the “ABL_T315I_0P (IC50)” value in assay [1] is listed as “D (<0.01 μM)”. Moreover, the GI50 on ABL T315I BAF3 cells and at ABL P210WT BAF3 cells was 0.1 to 1 µM throughout.
Regarding `CN(C)C(=O)C(O)c1cc(-c2cnc3[nH]cc(-c4ccccc4F)c3c2Cl)cnc1N` (stereo not drawn), the “ABL_T315I_0P (IC50)” value in assay [1] is listed as “D (<0.01 μM)”. Also, the GI50 at ABL T315I BAF3 cells fell in the range of 0.01 to 0.1 µM; on ABL P210WT BAF3 cells, 0.1 to 1 µM.
Consider `CCc1c(-c2cncc(C(O)C(=O)N(C)C)c2)cnc2[nH]cc(-c3ccccc3OC)c12` (stereo not drawn) [2-{5-[4-Ethyl-3-(2-methoxy-phenyl)-1H-pyrrolo[2,3-b]pyridin-5-yl]-pyridin-3-yl}-2-hydroxy-N,N-dimethyl-acetamide], for which, in assay [1], the “ABL_T315I_0P (IC50)” value is on record as “D (<0.01 μM)”. Besides, the GI50 on ABL T315I BAF3 cells and at ABL P210WT BAF3 cells was 0.1 to 1 µM throughout.
